Reference: patent US20110251247A1, “SUBSTITUTED ISOXAZOLINE DERIVATIVES” (PFIZER INC., priority 2010, published 2011)

How the values were obtained:
Assay type in all cases: in vivo
[1] = test system: Horn Fly (Haematobia irritans); assay: Horn Fly (Haematobia irritans) Feed Assay; conditions: horn flies fed on treated citrated bovine blood; knockdown and mortality at approximately 2 and 24 hours
Description: Horn Fly (Haematobia irritans) Feed Assay
Formula (1) compounds were dissolved in DMSO and aliquots were added to citrated bovine blood in a membrane covered Petri dish. Approximately ten horn flies were placed onto each Petri dish and covered. The flies were allowed to feed on the treated blood cell. Flies were held at approximately 80° F. with a minimum of approximately 50% relative humidity. Flies were examined for knockdown and mortality at approximately 2 and 24 hours. Endpoint data were recorded as a lethal dose 90% (LD^90) in μg/mL.

[2] = test system: Flea (Ctenocephalides felis); assay: Flea (Ctenocephalides felis) Membrane Feed Assay-Adult; conditions: adult fleas fed on treated citrated bovine blood for approximately 2 hours; knockdown and/or death at approximately 2 and 24 hours
Description: Flea (Ctenocephalides felis) Membrane Feed Assay-Adult
Formula (1) compounds were dissolved in DMSO and aliquots were added to citrated bovine blood in a membrane covered Petri dish pre-warmed to 37° C. Feeding tubes containing approximately 30-35 adult fleas were placed onto the Petri dishes. The fleas were allowed to feed for approximately 2 hours. […] Endpoint data were recorded as an efficacious dose 80% (ED^80) in μg/mL.

[3] = test system: Hard Tick Larvae (Rhipicephalus sanquineus); assay: Hard Tick Larvae (Rhipicephalus sanquineus) Whole Organism Contact Assay; conditions: tick larvae in coated vials; knockdown examined at approximately 24 and 48 hours
Description: Hard Tick Larvae (Rhipicephalus sanquineus) Whole Organism Contact Assay
Formula (1) compounds were dissolved in isopropyl alcohol (IPA) and aliquots were added to vials placed on a roller for at least 2 hours to allow the IPA to evaporate. IPA alone was used as a negative control and fipronil was used as a positive control. Approximately 50-200 tick larvae were added to the vials using a swab and the vials were closed. At approximately 24 and 48 hours, the vials were examined and knockdown was recorded as active. Vials showing knockdown were examined for tick paralysis and/or death at approximately 48 hrs. Endpoint data can be recorded as an effective dose 100% (ED^100) and/or a lethal dose 100% (LD^100) in μg/cm^2.

Structure (SMILES)	LD^90 (lethal dose 90%) [1]	ED^80 (efficacious dose 80%) [2]	ED^100 (effective dose 100%) [3]
O=C(CC1CC1)NCc1cc(C2=NOC(c3cc(Cl)c(Cl)c(Cl)c3)(C(F)(F)F)C2)ccc1F (stereo not shown) [Example 8, 2-cyclopropyl-N-{2-fluoro-5-[5-(3,4,5-trichlorophenyl)-5-(trifluoromethyl)-4,5-dihydroisoxazol-3-yl]benzyl}acetamide]	3 µg/mL	–	–
CCC(=O)NCc1cc(C2=NOC(c3cc(Cl)c(Cl)c(Cl)c3)(C(F)(F)F)C2)ccc1F (stereo not shown) [Example 7, N-{2-fluoro-5-[5-(3,4,5-trichlorophenyl)-5-(trifluoromethyl)-4,5-dihydroisoxazol-3-yl]benzyl}propanamide]	1 µg/mL	10 µg/mL	–
CC(=O)NCc1cc(C2=NOC(c3cc(Cl)c(F)c(Cl)c3)(C(F)(F)F)C2)ccc1F (stereo not shown) [Example 11, N-{5-[5-(3,5-dichloro-4-fluorophenyl)-5-(trifluoromethyl)-4,5-dihydroisoxazol-3-yl]-2-fluorobenzyl}acetamide]	3 µg/mL	–	–
CC(C)C(=O)NCc1cc(C2=NOC(c3cc(Cl)c(Cl)c(Cl)c3)(C(F)(F)F)C2)ccc1F (stereo not shown) [Example 4, N-{2-fluoro-5-[5-(3,4,5-trichlorophenyl)-5-(trifluoromethyl)-4,5-dihydroisoxazol-3-yl]benzyl}-2-methylpropanamide]	1 µg/mL	–	–
CC(=O)NCc1cc(C2=NOC(c3cc(Cl)c(F)c(Cl)c3)(C(F)(F)F)C2)ccc1Cl (stereo not shown) [Example 17, N-{2-chloro-5-[5-(3,5-dichloro-4-fluorophenyl)-5-(trifluoromethyl)-4,5-dihydroisoxazol-3-yl]benzyl}acetamide]	1 µg/mL	–	–
CC(C)CC(=O)NCc1cc(C2=NOC(c3cc(Cl)c(Cl)c(Cl)c3)(C(F)(F)F)C2)ccc1F (stereo not shown) [Example 9, N-{2-fluoro-5-[5-(3,4,5-trichlorophenyl)-5-(trifluoromethyl)-4,5-dihydroisoxazol-3-yl]benzyl}-3-methylbutanamide]	3 µg/mL	–	–
O=C(NCc1cc(C2=NOC(c3cc(Cl)c(Cl)c(Cl)c3)(C(F)(F)F)C2)ccc1F)C1CCC1 (stereo not shown) [Example 6, N-{2-fluoro-5-[5-(3,4,5-trichlorophenyl)-5-(trifluoromethyl)-4,5-dihydroisoxazol-3-yl]benzyl}cyclobutanecarboxamide]	3 µg/mL	10 µg/mL	–
CC(=O)NCc1cc(C2=NOC(c3cc(Cl)c(Cl)c(Cl)c3)(C(F)(F)F)C2)ccc1F (stereo not shown) [Example 3, N-{5-[5-(3,4,5-trichlorophenyl)-5-(trifluoromethyl)-4,5-dihydroisoxazol-3-yl]-2-fluorobenzyl}acetamide]	10 µg/mL	3 µg/mL	–
CC(=O)NCc1cc(C2=NOC(c3cc(Cl)c(Cl)c(Cl)c3)(C(F)(F)F)C2)ccc1Br (stereo not shown) [Example 18, N-(2-bromo-5-(5-(3,4,5-trichlorophenyl)-5-(trifluoromethyl)-4,5-dihydroisoxazol-3-yl)benzyl)acetamide]	1 µg/mL	10 µg/mL	–
O=C(NCc1cc(C2=NOC(c3cc(Cl)c(Cl)c(Cl)c3)(C(F)(F)F)C2)ccc1F)C1CC1 (stereo not shown) [Example 5, N-{2-fluoro-5-[5-(3,4,5-trichlorophenyl)-5-(trifluoromethyl)-4,5-dihydroisoxazol-3-yl]benzyl}cyclopropanecarboxamide]	1 µg/mL	3 µg/mL	–
O=C(NCc1cc(C2=NOC(c3cc(Cl)c(F)c(Cl)c3)(C(F)(F)F)C2)ccc1F)C1CC1 (stereo not shown) [Example 12, N-{5-[5-(3,5-dichloro-4-fluorophenyl)-5-(trifluoromethyl)-4,5-dihydroisoxazol-3-yl]-2-fluorobenzyl}cyclopropanecarboxamide]	–	3 µg/mL	–
O=C(NCc1cc(C2=NOC(c3cc(Cl)c(F)c(Cl)c3)(C(F)(F)F)C2)ccc1F)C1CC(F)(F)C1 (stereo not shown) [Example 13, N-{5-[5-(3,5-dichloro-4-fluorophenyl)-5-(trifluoromethyl)-4,5-dihydroisoxazol-3-yl]-2-fluorobenzyl}-3,3-difluorocyclobutanecarboxamide]	–	3 µg/mL	–
CCNC(=O)CC(=O)NCc1cc(C2=NOC(c3cc(Cl)c(Cl)c(Cl)c3)(C(F)(F)F)C2)ccc1F (stereo not shown) [Example 1, N-ethyl-N′-{2-fluoro-5-[5-(3,4,5-trichloro-phenyl)-5-trifluoromethyl-4,5-dihydro-isoxazol-3-yl]-benzyl}-malonamide]	–	–	10.0 μg/cm^2
O=C(CC(=O)NCC1CC1)NCc1cc(C2=NOC(c3cc(Cl)c(Cl)c(Cl)c3)(C(F)(F)F)C2)ccc1F (stereo not shown) [Example 2, N-Cyclopropylmethyl-N′-{2-fluoro-5-[5-(3,4,5-trichloro-phenyl)-5-trifluoromethyl-4,5-dihydro-isoxazol-3-yl]-benzyl}-malonamide]	–	–	10.0 μg/cm^2
